Assay results as given in US20260232679A1, “PHARMACEUTICAL COMPOSITION FOR TREATING TUMORS” (Eisai R&D Management Co., Ltd., priority 2023, published 2026).

Legend:
[1] = system: human colorectal cancer cell line Colo205 cells; assay: Antitumor effect in transplantation model nude mouse with human colorectal cancer cell line Colo205 cells (Example 1); type: in vivo; conditions: 14 days; for enhancement in antitumor effect (tumor volume) by combined use with Trametinib: combined with Trametinib 0.3 mg/kg p.o., formula (I) 12.5 or 25 mg/kg p.o., ICG001 100 mg/kg i.p., FIGS. 1-3
Procedure: Human colorectal cancer-derived cell line Colo205 cells (supplied by ATCC) were suspended in Hanks' Balanced Salt Solution (HBSS) (manufactured by FUJIFILM Wako Chemicals) at 5× 10^7 cells/mL. 0.1 mL of the obtained cell suspension was transplanted subcutaneously to a right frank of 6-week nude mice (CAnN.Cg-Foxn1 nu/CrlCrlj, manufactured by Charles River Laboratories Japan, Inc.). Ten days after the transplantation, a major axis and a minor axis of a tumor generated in each mouse were measured with a digimatic caliper (manufactured by Mitutoyo Corp.), and the mice were divided into groups each including six mice such that an average tumor volume was approximately equal. The tumor volume was calculated according to the following formula.
From ten days after the transplantation, the compound represented by formula (I) (12.5 mg/kg or 25 mg/kg, once a day, 14 days, orally administered), Trametinib (0.3 mg/kg, once a day, 14 days, orally administered), and ICG001 (100 mg/kg, once a day, 14 days, intraperitoneally administered) were administered singly or in combination to the mice in a single administration group or a combined administration group. Note that any one of the above agents was not administered to a control group.
Note that, at the time of administration, the compound represented by formula (I) was dissolved in 0.1 M hydrochloric acid at 1.25 mg/mL or 2.50 mg/mL, Trametinib (manufactured by Amadis Chemical) was dissolved in distilled water (pH 8.0) (manufactured by Otsuka Pharmaceutical Co., Ltd.) containing 0.5 w/v % of hydroxypropyl methyl cellulose (manufactured by FUJIFILM Wako Chemicals) and 0.2 w/v % of Tween80 (manufactured by Sigma) at 0.03 mg/mL, and ICG001 (manufactured by WuXi App Tec) was dissolved in physiological saline (manufactured by Otsuka Pharmaceutical Co., Ltd.) containing 3.5 w/v % of dimethylsulfoxide (manufactured by Wako Pure Chemical Industries, Ltd.) and 6.5 w/v % of Tween80 at 10 mg/mL.
The administration start day was defined as the first day, and a major axis and a minor axis of a tumor generated in each mouse were measured on the fifth day, the eighth day, the twelfth day, and the fifteenth day, and a tumor volume was calculated by a similar method to the above-described method. FIG. 1 illustrates a transition of the tumor volume in a case where 12.5 mg/kg of the compound represented by formula (I) and 0.3 mg/kg of Trametinib were administered singly or in combination. FIG. 2 illustrates a transition of the tumor volume in a case where 25.0 mg/kg of the compound represented by formula (I) and 0.3 mg/kg of Trametinib were administered singly or in combination. FIG. 3 illustrates a transition of the tumor volume in a case where 100 mg/kg of ICG001 and 0.3 mg/kg of Trametinib were administered singly or in combination. […]

[2] = system: human colorectal cancer cell line SW1463 cells; assay: Antitumor effect in transplantation model nude mouse with human colorectal cancer cell line SW1463 cells (Example 2); type: in vivo; conditions: formula (I) 25.0 mg/kg + Trametinib 0.3 mg/kg + Adagrasib 10 mg/kg, p.o. once a day, 14 days
Procedure: (§1) The tumor volume was calculated according to the following formula.

[3] = system: human colorectal cancer cell line Colo205 cells; assay: Antitumor effect in transplantation model nude mouse with human colorectal cancer cell line Colo205 cells (Example 3); type: in vivo; conditions: p.o. once a day, 14 days
Procedure: as §1

[4] = system: human non-small cell lung cancer cell line NCI-H358 cells; assay: Antitumor effect in transplantation model nude mouse with human non-small cell lung cancer cell line NCI-H358 cells (Example 4); type: in vivo; conditions: p.o. once a day, 14 days
Procedure: as §1

[5] = system: human melanoma cell line A375 cells; assay: Antitumor effect in transplantation model nude mouse with human melanoma cell line A375 cells (Example 5); type: in vivo; conditions: p.o. once a day, 14 days
Procedure: as §1

[6] = system: human colorectal cancer cell line HT-29 (BRAF V600E-mutant); conditions: HT-29 subcutaneous mouse model, cited from earlier work
[7] = system: patient-derived colorectal cancer organoid; conditions: PDX model mouse, ICG001 + Trametinib; cited from earlier work
[8] = formula (I) 25 mg/kg + Trametinib 0.3 mg/kg, FIG. 7
[9] = formula (I) 25.0 mg/kg + Trametinib 0.3 mg/kg + Adagrasib 3 mg/kg, FIG. 12
[10] = formula (I) 25 mg/kg + Trametinib 0.3 mg/kg, FIG. 10
[11] = formula (I) 25 mg/kg + Trametinib 0.3 mg/kg, FIG. 13

## C=CCN1CC(=O)N2[C@@H](Cc3ccc(O)cc3F)C(=O)N(Cc3cccc(N4CC(N5CCN(CC)CC5)C4)n3)C[C@@H]2N1C(=O)NCc1ccccc1 [compound represented by formula (I), (6S,9aS)—N-benzyl-8-({6-[3-(4-ethylpiperazin-1-yl)azetidin-1-yl]pyridin-2-yl}methyl)-6-(2-fluoro-4-hydroxybenzyl)-4,7-dioxo-2-(prop-2-en-1-yl)hexahydro-2H-pyrazino[2,1-c][1,2,4]triazine-1(6H)-carboxamide]
[1]; once a day
  enhancement in antitumor effect (tumor volume) by combined use with Trametinib: remarkable enhancement in antitumor effect
[1]; formula (I) 12.5 or 25 mg/kg p.o. + Trametinib 0.3 mg/kg p.o., once a day, FIGS. 1 and 2
  tumor proliferation, combined use with Trametinib compared with formula (I) or Trametinib administered singly: inhibited tumor proliferation in a statistically significant manner
[1]; formula (I) 12.5 or 25 mg/kg p.o. + Trametinib 0.3 mg/kg vs ICG001 100 mg/kg i.p. + Trametinib 0.3 mg/kg, FIG. 4
  tumor proliferation, combined administration with Trametinib compared with combined administration of ICG001 and Trametinib: inhibited tumor proliferation in a statistically significant manner
[2]; FIG. 5
  tumor proliferation, three-agent combination with Trametinib and Adagrasib compared with formula (I) singly or Trametinib + Adagrasib: inhibited tumor proliferation in a statistically significant manner
[2]; FIG. 6
  tumor proliferation, three-agent combination with Trametinib and Adagrasib compared with Adagrasib singly or formula (I) + Trametinib: inhibited tumor proliferation in a statistically significant manner
[3]; formula (I) 25.0 mg/kg + Trametinib 0.3 mg/kg + Dabrafenib 30 mg/kg, FIG. 8
  tumor proliferation, three-agent combination with Trametinib and Dabrafenib compared with two-agent Trametinib + Dabrafenib: inhibited tumor proliferation in a statistically significant manner
[3]; formula (I) 25.0 mg/kg + Trametinib 0.3 mg/kg + Dabrafenib 30 mg/kg, FIG. 9
  tumor proliferation, three-agent combination with Trametinib and Dabrafenib compared with two-agent formula (I) + Trametinib: inhibited tumor proliferation in a statistically significant manner
[3]; [8]
  enhancement in antitumor effect (tumor volume) by combined use with Trametinib: remarkable enhancement in antitumor effect
  tumor proliferation, combined use with Trametinib compared with formula (I) or Trametinib administered singly: inhibited tumor proliferation in a statistically significant manner
[4]; formula (I) 25.0 mg/kg + Trametinib 0.3 mg/kg + Adagrasib 3 mg/kg, FIG. 11
  tumor proliferation, three-agent combination with Trametinib and Adagrasib compared with formula (I) singly or Trametinib + Adagrasib: inhibited tumor proliferation in a statistically significant manner
[4]; [9]
  antitumor effect, three-agent combination with Trametinib and Adagrasib compared with two-agent formula (I) + Trametinib: enhancement tendency
  tumor proliferation, three-agent combination with Trametinib and Adagrasib compared with Adagrasib singly: inhibited tumor proliferation in a statistically significant manner
[4]; [10]
  antitumor effect, combined use with Trametinib compared with formula (I) or Trametinib administered singly: tendency to enhance the antitumor effect
  enhancement in antitumor effect (tumor volume) by combined use with Trametinib: remarkable enhancement in antitumor effect
[5]; formula (I) 25.0 mg/kg + Trametinib 0.3 mg/kg + Dabrafenib 30 mg/kg, FIG. 14
  tumor proliferation, three-agent combination with Trametinib and Dabrafenib compared with formula (I) singly or Trametinib + Dabrafenib: inhibited tumor proliferation in a statistically significant manner
[5]; formula (I) 25.0 mg/kg + Trametinib 0.3 mg/kg + Dabrafenib 30 mg/kg, FIG. 15
  tumor proliferation, three-agent combination with Trametinib and Dabrafenib compared with Dabrafenib singly or formula (I) + Trametinib: inhibited tumor proliferation in a statistically significant manner
[5]; [11]
  enhancement in antitumor effect (tumor volume) by combined use with Trametinib: remarkable enhancement in antitumor effect
  tumor proliferation, combined use with Trametinib compared with formula (I) or Trametinib administered singly: inhibited tumor proliferation in a statistically significant manner

## O=C1[C@H](Cc2ccc(O)cc2)N2C(=O)CCN(C(=O)NCc3ccccc3)[C@H]2CN1Cc1cccc2ccccc12 [ICG001]
[1]; once a day
  enhancement in antitumor effect (tumor volume) by combined use with Trametinib: remarkable enhancement in antitumor effect was not observed
[6]; ICG001 + Vemurafenib + Trametinib
  antitumor effect, in combination with both Vemurafenib and Trametinib compared to the single administration: antitumor effect is enhanced
[6]; ICG001 + Vemurafenib
  antitumor effect, in combination with Vemurafenib compared to the single administration: antitumor effect is enhanced
[7]
  antitumor effect, in combination with Trametinib compared to the single administration: antitumor effect is enhanced
